One molecule from BindingDB's records for doi:10.1021/np980173q (Kagoshima University, 1998) can be followed below.

The term IC50 denotes the concentration that inhibits the measured activity by half. Higher therefore signals weaker potency in that assay.

The test system of this assay is Enterococcus faecalis. Put plainly: Antimicrobial activity against Enterococcus faecalis 12964.

Molecule `CC(=CCn1c[n+](C)c2ncnc(N)c21)CC[C@@]1(C)[C@H](C)CC[C@@]2(C)C(C)=CCC[C@H]12` [AGELASINE B] gave a half-inhibitory concentration (IC50) of 13.7 µM.
